These results are taken from PubChem BioAssay AID850 (SRMLSC, 2007).

Active and inactive are the calls of the source. No rule for the calls is given here. A value given as a limit tells only on which side of the number the result lay.

As a reminder, the inhibition is the relative decrease from the control value, in per cent. Usually IC50 stands for the concentration needed to halve the response being measured.

Assay [1] can be described thus: concentration-response yeast growth inhibition under permissive conditions, counter-assay for yeast lifespan-shortening chemical project (AID 850).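 Also: growth read as optical density after one day of incubation.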 Conditions: Saccharomyces cerevisiae growth inhibition, permissive control, measured here: maximum growth inhibition, stronger effect = higher value.
Assay [2] has as its system Saccharomyces cerevisiae growth inhibition, permissive control. The assay is described as above.

For the compound `c1ccc2c(c1)C(=Nn1cnnc1)c1ccccc1-2`, the inhibition in assay [1] (at 0.391 µM) was found to be 7.85%. Also, the IC50 in assay [2] was > 100 µM (inactive).

As for `COCC(C)OC(=O)/C(C#N)=C\c1coc2ccc(C)cc2c1=O` (stereo not given), in assay [1] (at 50 µM), the inhibition is 16.6%. Besides, in assay [2], the IC50 was > 100 µM (inactive).

With `CCOC(=O)c1cc([N+](=O)[O-])c([N+](=O)[O-])cc1NC(C)=O`, the inhibition in assay [1] (at 12.5 µM) was found to be 99.6%. In addition, the IC50 in assay [2] is less than 0.098 µM.

As for `CCOC(=O)c1cnc(-n2nc(C)cc2C)nc1NCCc1ccccc1`, in assay [1] (at 50 µM), the inhibition is 17.4%. The IC50 in assay [2] was > 100 µM (inactive).

Regarding `S=C(Nc1ccc(Oc2ccccc2)cc1)NC1CCCCCC1`, the inhibition in assay [1] (at 0.391 µM) was determined as 19.9%. Also, the IC50 in assay [2] is > 100 µM (inactive).

Regarding `C(=N\c1ncnc2sccc12)/NOCc1ccccc1`, the inhibition in assay [1] (at 50 µM) is 98.6%. The IC50 in assay [2] was 7.68 µM.

As for `Cc1ccc(NC(=O)CSC2=C(C#N)C(c3ccc4c(c3)OCO4)C3=C(CCCC3=O)N2)c(C)c1` (stereo not given), in assay [1] (at 0.195 µM), the inhibition is 8.26%. Moreover, in assay [2], the IC50 is > 100 µM (inactive).

As to `Oc1cccc(/C=N/NC(=S)Nc2cccnc2)c1O`, in assay [1] (at 0.781 µM), the inhibition was 7.13%. The IC50 in assay [2] is > 100 µM (inactive).

Take `Cc1ccc(C)c(-n2nnnc2SCC(=O)Nc2cccc(-c3nnc4n3CCCCC4)c2)c1`: in assay [1] (at 50 µM), the inhibition is 17.5%. Moreover, the IC50 in assay [2] was > 100 µM (inactive).

Take `COc1ccc(OC)c(-c2c3cc(O)c(=O)cc-3oc3cc(O)c(O)cc23)c1`: in assay [1] (at 50 µM), the inhibition worked out at 63.5%. In assay [2], the IC50 is 28.1 µM.

Consider `Oc1c(Br)cc(Br)cc1/C=N/c1nc2c(s1)CCCC2`, for which the inhibition in assay [1] (at 50 µM) was determined as 98.5%. Also, in assay [2], the IC50 was 5.27 µM.

Take `O=[N+]([O-])c1ccc(Sc2nc3ccccc3o2)c([N+](=O)[O-])c1`: the inhibition in assay [1] (at 50 µM) was 48.3%. Besides, in assay [2], the IC50 is 50.1 µM.

As for `COc1ccc(C(=O)NC(=S)NNC(=O)c2cnccn2)cc1OC`, the inhibition in assay [1] (at 25 µM) was 47.1%. Besides, the IC50 in assay [2] is 46.5 µM.

As for `O=C(CCc1ccccc1)NNC(=S)NC(=O)c1ccccc1`, the inhibition in assay [1] (at 12.5 µM) came to 22.5%. For the same compound, the IC50 in assay [2] is > 100 µM (inactive).

Regarding `CN(c1ccccc1)c1ccc(/C=C/[N+](=O)[O-])cc1`, the inhibition in assay [1] (at 50 µM) was determined as 98.4%. The IC50 in assay [2] was 16.8 µM.

For the compound `O=C(Nc1nnc(C2CC2)s1)c1ccccn1`, the inhibition in assay [1] (at 50 µM) was 22.8%. In addition, the IC50 in assay [2] was > 100 µM (inactive).

Turning to `Clc1cc2nc3ccccn3c2cc1Cl`, the inhibition in assay [1] (at 50 µM) was found to be 16%. Further, in assay [2], the IC50 was > 100 µM (inactive).

In the case of `COc1ccc(Nc2cnn(-c3nc4ccccc4s3)c(=O)c2Cl)cc1`, the inhibition in assay [1] (at 50 µM) was found to be 60.8%. For the same compound, the IC50 in assay [2] was 44.2 µM.

Consider `Clc1ccc(CSC(Cn2ccnc2)c2ccc(Cl)cc2Cl)cc1` (stereo not given), for which the inhibition in assay [1] (at 50 µM) was 99.4%. Also, the IC50 in assay [2] was 0.365 µM.

Turning to `Cc1ccnn2cc3c(=O)n(C)c(=O)n(C)c3c12`, the inhibition in assay [1] (at 50 µM) is 64.1%. In assay [2], the IC50 was 37.6 µM.

Consider `Oc1c(Br)cc(Br)cc1C=Nc1ccc2c(c1)OCO2`, for which, in assay [1] (at 50 µM), the inhibition came to 86%. Besides, the IC50 in assay [2] is 36.5 µM.

Turning to `COc1ccc(-c2cc(=O)n(-c3nc4ccccc4[nH]3)[nH]2)cc1`, the inhibition in assay [1] (at 50 µM) was found to be 98.2%. For the same compound, the IC50 in assay [2] was 14.6 µM.

Take `O=[N+]([O-])c1cc(Cc2ccccc2)cc(C=Nc2ccc(N3CCOCC3)cc2)c1O`: the inhibition in assay [1] (at 25 µM) was determined as 82.7%. Moreover, in assay [2], the IC50 is 15 µM.

As for `OC(CN1CCN(c2ccccn2)CC1)Cn1c2ccc(Cl)cc2c2cc(Cl)ccc21` (stereo not given), in assay [1] (at 50 µM), the inhibition was 98.9%. For the same compound, the IC50 in assay [2] is 30.9 µM.

As to `COc1ccccc1OCCCc1c(C)n[nH]c1C`, the inhibition in assay [1] (at 50 µM) turned out to be 100%. Further, the IC50 in assay [2] is 5.76 µM.

On to `Cc1ccc(N2NC(C)(c3cccs3)NC2=S)cc1` (stereo not given), for which the inhibition in assay [1] (at 25 µM) turned out to be 94.1%. The IC50 in assay [2] is 12.1 µM.

With `N#Cc1ccccc1NC(=O)c1ccc2c(Cl)c3c(nc2c1)CCCC3`, the inhibition in assay [1] (at 3.125 µM) amounted to 13.6%. In addition, the IC50 in assay [2] was > 100 µM (inactive).

With `c1ccc2nc3c(nc2c1)[nH]c1ccccc13`, in assay [1] (at 50 µM), the inhibition stood at 19.1%. Moreover, in assay [2], the IC50 is > 100 µM (inactive).

Turning to `O=C(CSCc1ccco1)Nc1cc(C(F)(F)F)ccc1N1CCOCC1`, the inhibition in assay [1] (at 0.781 µM) is 16.7%. In addition, the IC50 in assay [2] was > 100 µM (inactive).

Take `COc1ccc2c(C)nc(Nc3nc(C)c(C)c(=O)[nH]3)nc2c1`: the inhibition in assay [1] (at 50 µM) came to 50.7%. Moreover, the IC50 in assay [2] is 44.6 µM.

For the compound `Cn1c(SCC(=O)Nc2ccccc2)nc(O)cc1=O`, the inhibition in assay [1] (at 50 µM) was determined as 76.2%. The IC50 in assay [2] was 33.2 µM.

Turning to `COc1cccc(-n2nnnc2S(C)(=O)=O)c1`, the inhibition in assay [1] (at 50 µM) came to 83.2%. The IC50 in assay [2] is 23.9 µM.

Take `COc1ccc(/C(C)=N/NC(=O)c2ccc(CSc3cccc4cccnc34)cc2)cc1OC`: the inhibition in assay [1] (at 6.25 µM) came out at 12.5%. Further, the IC50 in assay [2] was > 100 µM (inactive).

Take `CCC1C(=O)N=C(SCC(=O)Nc2ccccc2)NC1=O` (stereo not given): the inhibition in assay [1] (at 50 µM) was found to be 52.5%. In assay [2], the IC50 was 46.5 µM.

In the case of `Cc1nc(Nc2ccc(Cl)c(Cl)c2)sc1C(=O)Nc1ccccc1`, the inhibition in assay [1] (at 50 µM) is 15.6%. Further, the IC50 in assay [2] was > 100 µM (inactive).

Regarding `Cc1cc(-c2n[nH]c(=S)n2/N=C/c2cc([N+](=O)[O-])ccc2Cl)n[nH]1`, the inhibition in assay [1] (at 0.781 µM) was -1.78%. In assay [2], the IC50 was > 100 µM (inactive).

`CCCCNC(=S)NCc1ccc2c(c1)cc(C)n2C`: the inhibition in assay [1] (at 0.781 µM) is 0.79%. Also, the IC50 in assay [2] was > 100 µM (inactive).

As to `COc1cc(/C=C2\C(=O)ON=C2c2ccccc2)cc(OC)c1OC`, the inhibition in assay [1] (at 0.781 µM) is -2.57%. In assay [2], the IC50 is > 100 µM (inactive).

`CCc1cc(-c2n[nH]c(C)c2Oc2ccc(C(C)C)cc2)c(O)cc1O`: in assay [1] (at 50 µM), the inhibition came out at 75.6%. The concentration for half-maximal inhibition (IC50) in assay [2] is 35 µM.

As to `O=C(Oc1c(Cl)cc(Cl)c2cccnc12)c1cccc([N+](=O)[O-])c1`, the inhibition in assay [1] (at 12.5 µM) came to 99.4%. In addition, the IC50 in assay [2] was 1.44 µM.

In the case of `CCOC(=O)C1CCCCN1C(=O)CCc1c(C)nc2cc(-c3ccccc3)nn2c1C` (stereo not given), the inhibition in assay [1] (at 25 µM) worked out at 21.6%. Besides, the IC50 in assay [2] was > 100 µM (inactive).

On to `Nc1ccc(C(=O)OCC(=O)Nc2ccc3c(c2)OCO3)cc1[N+](=O)[O-]`, for which the inhibition in assay [1] (at 0.391 µM) was 17.2%. For the same compound, the IC50 in assay [2] is > 100 µM (inactive).

With `Cc1nc2c(F)c(F)c(C(F)(F)F)c(F)c2[nH]1`, the inhibition in assay [1] (at 0.391 µM) came out at 17.4%. Besides, in assay [2], the IC50 was > 100 µM (inactive).

In the case of `CC1/C(=N/O)CC(c2ccccc2)N(C)C1c1ccccc1` (stereo not given), in assay [1] (at 25 µM), the inhibition was found to be 94.8%. Further, the IC50 in assay [2] is less than 0.098 µM.

On to `CCCCCCCCCCCCCCCC[n+]1ccc(C(N)=O)cc1`, for which the inhibition in assay [1] (at 25 µM) is 100%. For the same compound, the 50% inhibitory concentration (IC50) in assay [2] was 0.545 µM.

For the compound `Clc1ccc(N/N=C/c2ccncc2)cc1Cl`, in assay [1] (at 50 µM), the inhibition worked out at 21.4%. Moreover, in assay [2], the IC50 was > 100 µM (inactive).

`CC(N=Cc1cccc(O)c1O)c1ccccc1` (stereo not given): the inhibition in assay [1] (at 50 µM) came out at 98%. Further, in assay [2], the IC50 is 9.56 µM.

Consider `COc1ccccc1OCC(=O)n1cc(C(=O)c2cc(Cl)cc(Cl)c2O)cn1`, for which the inhibition in assay [1] (at 50 µM) was found to be 100%. Besides, the IC50 in assay [2] was 4.72 µM.

`O=C1C=C(c2ccccc2)C(=O)N1Nc1ccccc1`: in assay [1] (at 50 µM), the inhibition was 85.8%. In assay [2], the IC50 was 23.6 µM.

As for `O=C(OCn1ncc(Br)c(Br)c1=O)c1ccccc1Cl`, the inhibition in assay [1] (at 0.781 µM) was determined as 10.5%. Moreover, the IC50 in assay [2] is > 100 µM (inactive).
